For three molecules, inhibition results are on record in ChEMBL document CHEMBL4665643 (Bioorg Med Chem Lett, 2019).

Test [1] addresses T1, Ephrin type-B receptor 2 (Homo sapiens) (UniProt P29323).
T1 sequence (whole entry): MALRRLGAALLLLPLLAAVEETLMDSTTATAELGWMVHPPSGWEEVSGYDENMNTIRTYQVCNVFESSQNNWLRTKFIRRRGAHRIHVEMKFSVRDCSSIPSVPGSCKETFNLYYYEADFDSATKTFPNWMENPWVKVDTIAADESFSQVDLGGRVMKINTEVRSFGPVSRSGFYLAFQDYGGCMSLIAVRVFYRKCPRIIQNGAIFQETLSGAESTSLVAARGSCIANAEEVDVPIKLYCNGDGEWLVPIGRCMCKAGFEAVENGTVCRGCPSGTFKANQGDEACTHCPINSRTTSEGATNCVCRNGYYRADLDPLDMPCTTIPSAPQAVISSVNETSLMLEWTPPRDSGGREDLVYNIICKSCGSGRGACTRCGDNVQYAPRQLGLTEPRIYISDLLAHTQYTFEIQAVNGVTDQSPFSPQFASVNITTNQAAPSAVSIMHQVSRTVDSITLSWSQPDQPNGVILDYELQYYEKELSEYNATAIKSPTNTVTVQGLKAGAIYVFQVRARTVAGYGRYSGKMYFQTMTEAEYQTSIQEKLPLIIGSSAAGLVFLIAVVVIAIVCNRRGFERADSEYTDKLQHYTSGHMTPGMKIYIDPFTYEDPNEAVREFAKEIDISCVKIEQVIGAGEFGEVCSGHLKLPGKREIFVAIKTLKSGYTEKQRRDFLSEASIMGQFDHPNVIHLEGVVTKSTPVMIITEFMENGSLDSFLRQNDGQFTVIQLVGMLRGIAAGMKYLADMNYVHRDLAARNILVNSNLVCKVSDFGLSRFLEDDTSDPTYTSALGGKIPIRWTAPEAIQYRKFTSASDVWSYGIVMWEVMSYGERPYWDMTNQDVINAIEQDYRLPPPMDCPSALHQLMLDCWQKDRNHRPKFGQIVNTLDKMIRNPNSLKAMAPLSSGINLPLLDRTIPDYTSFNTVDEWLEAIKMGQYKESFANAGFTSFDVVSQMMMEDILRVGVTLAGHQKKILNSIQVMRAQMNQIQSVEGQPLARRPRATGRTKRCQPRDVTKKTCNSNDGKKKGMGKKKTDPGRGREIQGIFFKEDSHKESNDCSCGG
In words: Inhibition of recombinant human GST-tagged EPHB2 (616 to 884 residues) expressed in baculovirus expression system using Tyr 02 as substrate at 0.1 uM incubated for 60 mins by Z'-Lyte assay relative to control.

The target of test [2] is Aurora kinase B (Homo sapiens) (UniProt Q96GD4). In words: Inhibition of recombinant human His-tagged full length Aurora B expressed in baculovirus expression system using Ser/Thr 01 as substrate at 0.1 uM incubated for 60 mins by Z'-Lyte assay relative to control.
The target of test [3] is T2, Tyrosine-protein kinase JAK3 (Homo sapiens) (UniProt P52333).
T2 sequence (whole entry): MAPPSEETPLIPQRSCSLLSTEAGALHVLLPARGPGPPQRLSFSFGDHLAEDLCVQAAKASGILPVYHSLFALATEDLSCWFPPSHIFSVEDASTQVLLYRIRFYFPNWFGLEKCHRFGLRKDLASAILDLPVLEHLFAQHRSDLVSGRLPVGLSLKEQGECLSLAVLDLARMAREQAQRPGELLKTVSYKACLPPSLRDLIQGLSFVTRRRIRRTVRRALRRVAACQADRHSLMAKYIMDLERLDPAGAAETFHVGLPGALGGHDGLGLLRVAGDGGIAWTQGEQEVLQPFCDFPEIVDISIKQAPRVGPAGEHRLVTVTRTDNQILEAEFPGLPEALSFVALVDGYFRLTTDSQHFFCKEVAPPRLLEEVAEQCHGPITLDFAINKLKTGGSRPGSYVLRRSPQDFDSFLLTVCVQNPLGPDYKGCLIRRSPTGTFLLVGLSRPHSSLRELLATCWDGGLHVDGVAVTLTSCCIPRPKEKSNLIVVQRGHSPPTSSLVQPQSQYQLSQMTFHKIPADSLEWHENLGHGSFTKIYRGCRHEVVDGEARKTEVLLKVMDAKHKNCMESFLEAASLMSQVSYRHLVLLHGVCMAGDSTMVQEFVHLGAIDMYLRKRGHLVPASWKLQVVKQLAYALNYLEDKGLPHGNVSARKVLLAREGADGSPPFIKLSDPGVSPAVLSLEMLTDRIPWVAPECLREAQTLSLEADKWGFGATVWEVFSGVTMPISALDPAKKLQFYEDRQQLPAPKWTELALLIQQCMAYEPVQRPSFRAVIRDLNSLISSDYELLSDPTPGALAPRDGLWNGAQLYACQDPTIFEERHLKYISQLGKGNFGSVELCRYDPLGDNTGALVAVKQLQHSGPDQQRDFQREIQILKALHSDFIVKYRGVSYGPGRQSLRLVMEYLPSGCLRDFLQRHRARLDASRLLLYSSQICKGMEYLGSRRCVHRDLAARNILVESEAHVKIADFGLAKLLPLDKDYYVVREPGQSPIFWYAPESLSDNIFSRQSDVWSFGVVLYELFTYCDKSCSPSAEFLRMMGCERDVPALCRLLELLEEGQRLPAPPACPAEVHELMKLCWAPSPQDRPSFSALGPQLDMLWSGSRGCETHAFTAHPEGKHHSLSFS
In words: Inhibition of recombinant human GST-tagged JAK3 (781 to 1124 residues) expressed in baculovirus expression system using Tyr 06 as substrate at 0.1 uM incubated for 60 mins by Z'-lyte assay relative to control.

For test [4], the target named is RAC-alpha serine/threonine-protein kinase (Homo sapiens) (UniProt P31749). In words: Inhibition of recombinant human His-tagged full length AKT1 expressed in baculovirus expression system using Ser/Thr 06 as substrate at 0.1 uM incubated for 60 mins by Z'-Lyte assay relative to control.
The target in test [5] is MAP kinase-activated protein kinase 2 (Homo sapiens) (UniProt P49137). In words: Inhibition of recombinant human His-tagged full length MAPKAPK2 expressed in Escherichia coli expression system using Ser/Thr 04 as substrate at 0.1 uM incubated for 60 mins by Z'-lyte assay relative to control.
Sequence of MAP kinase-activated protein kinase 2 (Homo sapiens) (P49137 whole entry, looked up): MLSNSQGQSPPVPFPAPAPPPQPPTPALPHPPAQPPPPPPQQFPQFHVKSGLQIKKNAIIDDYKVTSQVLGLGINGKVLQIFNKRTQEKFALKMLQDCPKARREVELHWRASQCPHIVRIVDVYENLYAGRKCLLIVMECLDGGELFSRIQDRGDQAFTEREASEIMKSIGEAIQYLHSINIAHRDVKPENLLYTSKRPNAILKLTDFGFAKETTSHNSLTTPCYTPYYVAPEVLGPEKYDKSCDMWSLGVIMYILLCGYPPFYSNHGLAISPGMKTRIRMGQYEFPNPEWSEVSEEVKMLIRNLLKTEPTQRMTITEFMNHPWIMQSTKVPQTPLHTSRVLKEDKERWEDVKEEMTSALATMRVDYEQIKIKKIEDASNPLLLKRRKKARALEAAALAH

Sequence of RAC-alpha serine/threonine-protein kinase (Homo sapiens) (P31749 whole entry): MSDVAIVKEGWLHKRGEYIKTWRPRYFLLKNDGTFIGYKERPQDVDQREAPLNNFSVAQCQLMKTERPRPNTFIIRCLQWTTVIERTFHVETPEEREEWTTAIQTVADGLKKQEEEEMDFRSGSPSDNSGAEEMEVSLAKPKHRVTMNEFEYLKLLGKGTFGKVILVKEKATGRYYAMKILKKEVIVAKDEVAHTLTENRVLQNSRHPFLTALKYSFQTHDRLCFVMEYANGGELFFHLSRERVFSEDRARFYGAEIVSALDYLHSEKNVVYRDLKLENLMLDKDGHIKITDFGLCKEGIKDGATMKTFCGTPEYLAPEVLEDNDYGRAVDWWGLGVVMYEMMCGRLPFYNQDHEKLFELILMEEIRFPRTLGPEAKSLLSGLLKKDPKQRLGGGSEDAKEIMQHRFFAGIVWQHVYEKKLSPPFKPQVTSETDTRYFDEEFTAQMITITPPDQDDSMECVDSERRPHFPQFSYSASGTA
Sequence of Aurora kinase B (Homo sapiens) (Q96GD4 whole entry): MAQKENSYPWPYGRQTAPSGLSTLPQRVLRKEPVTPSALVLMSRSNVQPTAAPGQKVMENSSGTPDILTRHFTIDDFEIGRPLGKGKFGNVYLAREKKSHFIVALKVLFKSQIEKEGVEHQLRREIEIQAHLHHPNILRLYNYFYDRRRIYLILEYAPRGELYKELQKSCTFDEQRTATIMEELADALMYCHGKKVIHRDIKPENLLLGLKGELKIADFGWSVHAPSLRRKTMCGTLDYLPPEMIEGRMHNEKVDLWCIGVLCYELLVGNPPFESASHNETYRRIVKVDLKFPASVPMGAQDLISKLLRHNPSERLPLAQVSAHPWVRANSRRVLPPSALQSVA

`O=C(Nc1c[nH]nc1-c1cc(Cl)ccc1OC(F)F)c1cnn2cccnc12`: the inhibition is 10% in test [1]; 3% in test [2]; 95% in test [3]; 1% in test [4]; 0% in test [5].

As to `O=C(Nc1c[nH]nc1-c1cc2ccccc2cc1OC(F)F)c1cnn2cccnc12`, the inhibition in test [1] is -3%; in test [2] it was 5%; in test [3] it was 94%; in test [4], -5%; in test [5], 6%.

With `Cn1cc(NC(=O)c2cnn3cccnc23)c(-c2cc(Cl)ccc2OC(F)F)n1`, the inhibition in test [1] is 1%; in test [2] it was 1%; in test [3] it was 98%; in test [4] it was -6%; in test [5] it was 10%.

Usually inhibition stands for the relative decrease from the control value, in per cent.
